In general, logP refers to a log measure of how a compound divides between an organic and an aqueous phase.

One series in a line: method code SF, from DOI: 10.1002/qsar.19890080404.
Regarding `CS(=O)(=O)c1cccs1`, the log partition coefficient (logP) is 0.38. Same read-out and setting: in the case of `CC(=O)c1c[nH]c2ccccc12` it was 2.06. As to `O=Cc1c[nH]c2ccccc12`, the lipophilicity (logP) was found to be 1.69. The same measure, in the same setting: next, `CC(=O)Nc1ccc2[nH]c(C)cc2c1`: 1.22; `NC(=S)c1cccs1`: 1.34. Still for that read-out and setting: in the case of `CCOC(=O)c1c[nH]cc1C` it was 2.05. Still for that read-out and setting: in the case of `N#Cc1ccc[nH]1` it was 1.13; in that of `O=Cc1ccc[nH]1`, 0.64; in that of `O=C(O)c1c[nH]c2ccccc12`, 1.99.

Experiment in the next series: not given
`CCOC(=O)c1ccoc1` registered a log partition coefficient (logP) of 1.78. Same read-out and setting: in the case of `CCOC(=O)c1c[nH]c2ccccc12` it was 3.04. `O=C(c1c[nH]c2ccccc12)C(F)(F)F`: the lipophilicity (logP) came out at 3.44. Same read-out and setting: in the case of `COC(=O)c1ccc2[nH]ccc2c1` it was 2.58. With `N#Cc1ccc2cc[nH]c2c1`, the logP was determined as 2.38. Compound `O=[N+]([O-])/C=C/c1cccs1` displayed a logP of 1.96. On the same count and under the same terms, in the case of `Brc1ccoc1` it was 2.18; in that of `CCOC(=O)c1cc2ccccc2[nH]1`, 3.18.

In turn, `NC(=O)c1ccc2[nH]ccc2c1` registered a lipophilicity (logP) of 0.87. Still for that read-out and setting: next, `NC(=O)c1cccc2[nH]ccc12`: 0.66; `CC(=O)C=Cc1ccco1`: 1.35; `Clc1cccc2cc[nH]c12`: 3.25. The compound `O=[N+]([O-])c1cccc2cc[nH]c12` showed a logP of 2.63. The same measure, in the same setting: in the case of `CCOc1ccc2cc[nH]c2c1` it was 2.53.

The compound `CC(=O)Oc1c[nH]c2ccccc12` showed a logP of 2.01.

In turn, `Clc1cccs1` displayed a lipophilicity (logP) of 2.54. In turn, `COc1ccco1` yielded a log partition coefficient (logP) of 1.44. The same measure, in the same setting: next, `O=Cc1ccoc1`: 0.51; `O=CNc1ccc2[nH]ccc2c1`: 1.07; `O=[N+]([O-])c1ccc2sccc2c1`: 2.92.

`NCc1ccco1` gave a logP of 0.37. Turning to `Cc1cccc2cc[nH]c12`, the logP amounted to 2.56. The same measure, in the same setting: next, `O=[N+]([O-])C=Cc1ccco1`: 1.56. `N#Cc1cccc2[nH]ccc12`: the log partition coefficient (logP) is 2.46. Same read-out and setting: next, `CN(C)C(=O)c1ccco1`: 0.41; `N#Cc1ccc2[nH]ccc2c1`: 2.36.

For the origin of these results see the SangsterLogP compilation.
